# From patent US20010014364A1, “Use of stabilized bromine to improve quality and appearance of leafy vegetables or the like” (priority 1997, published 2001)
# Assays:
# [1] = tested on: aerobic plate count bacteria; assay: Aerobic plate count (APC) bacteria on leaf lettuce after direct application of halogen solution and during storage; assay type: cell-based; settings: for Log reduction of microbial populations from leaf lettuce surface / Percent reduction of microbial populations from leaf lettuce surface: APC, compared to unwashed control; for Aerobic plate count (APC) bacterial populations: storage at 4-6° C.
# Procedure: (§1) Solutions of either stabilized sodium hyprobromite or industrial unstabilized sodium hypochlorite were added to “tap” water in order to achieve a 50, 100, or 200 ppm total halogen residual (as chlorine). The “tap” water contained calcium (90 ppm as CaCO3), “M” alkalinity (110 ppm as CaCO3) and magnesium (50 ppm as CaCO3) in deionized water. The “tap” water was buffered at pH 7.5 using borax and monobasic potassium phosphate. Solutions of stabilized sodium hypobromite or unstabilized sodium hypochlorite were applied directly to leaf lettuce by dipping the lettuce in the solutions for 3-minutes. Lettuce was immediately removed, drained for 1-minute, rinsed for 30-seconds with potable water, drained for 1-minute, and then spun dry with a bench-top lettuce spinner. Lettuce was analyzed for microbial populations remaining on the surface and 50-gram portions were stored at 4-6° C. for shelf-life evaluation. Shelf-life was visually judged for changes in color (browning) and odor.
# yeast and mold = assay: Yeast and mold (YM) count on leaf lettuce after direct application of halogen solution and during storage; assay type: cell-based; settings: for Yeast and mold (YM) count populations: storage at 4-6° C.; for Log reduction of microbial populations from leaf lettuce surface / Percent reduction of microbial populations from leaf lettuce surface: YM, compared to unwashed control
# Procedure: as §1
compound,measurement,setting,value
"OCl [Bleach, sodium hypochlorite]",Log reduction of microbial populations from leaf lettuce surface,[1]; 50 ppm av. Cl2,2.1 Log
same,Percent reduction of microbial populations from leaf lettuce surface,[1]; 50 ppm av. Cl2,99.200%
same,Log reduction of microbial populations from leaf lettuce surface,[1]; 100 ppm av. Cl2,2.1 Log
same,Percent reduction of microbial populations from leaf lettuce surface,[1]; 100 ppm av. Cl2,99.120%
same,Log reduction of microbial populations from leaf lettuce surface,[1]; 200 ppm av. Cl2,2.1 Log
same,Percent reduction of microbial populations from leaf lettuce surface,[1]; 200 ppm av. Cl2,99.200%
same,Aerobic plate count (APC) bacterial populations,"[1]; Day 0, 50 ppm av. Cl2",5.3 Log10 CFU/g lettuce
same,Aerobic plate count (APC) bacterial populations,"[1]; Day 0, 100 ppm av. Cl2",5.3 Log10 CFU/g lettuce
same,Aerobic plate count (APC) bacterial populations,"[1]; Day 0, 200 ppm av. Cl2",5.3 Log10 CFU/g lettuce
same,Aerobic plate count (APC) bacterial populations,"[1]; Day 1, 50 ppm av. Cl2",5.4 Log10 CFU/g lettuce
same,Aerobic plate count (APC) bacterial populations,"[1]; Day 1, 100 ppm av. Cl2",5.3 Log10 CFU/g lettuce
same,Aerobic plate count (APC) bacterial populations,"[1]; Day 1, 200 ppm av. Cl2",5.5 Log10 CFU/g lettuce
same,Aerobic plate count (APC) bacterial populations,"[1]; Day 2, 50 ppm av. Cl2",6.4 Log10 CFU/g lettuce
same,Aerobic plate count (APC) bacterial populations,"[1]; Day 2, 100 ppm av. Cl2",6.6 Log10 CFU/g lettuce
same,Aerobic plate count (APC) bacterial populations,"[1]; Day 2, 200 ppm av. Cl2",7.0 Log10 CFU/g lettuce
same,Aerobic plate count (APC) bacterial populations,"[1]; Day 4, 50 ppm av. Cl2",6.5 Log10 CFU/g lettuce
same,Aerobic plate count (APC) bacterial populations,"[1]; Day 4, 100 ppm av. Cl2",6.6 Log10 CFU/g lettuce
same,Aerobic plate count (APC) bacterial populations,"[1]; Day 4, 200 ppm av. Cl2",7.5 Log10 CFU/g lettuce
same,Aerobic plate count (APC) bacterial populations,"[1]; Day 5, 50 ppm av. Cl2",6.0 Log10 CFU/g lettuce
same,Aerobic plate count (APC) bacterial populations,"[1]; Day 5, 100 ppm av. Cl2",6.4 Log10 CFU/g lettuce
same,Aerobic plate count (APC) bacterial populations,"[1]; Day 5, 200 ppm av. Cl2",6.6 Log10 CFU/g lettuce
same,Aerobic plate count (APC) bacterial populations,"[1]; Day 6, 50 ppm av. Cl2",6.6 Log10 CFU/g lettuce
same,Aerobic plate count (APC) bacterial populations,"[1]; Day 6, 100 ppm av. Cl2",6.6 Log10 CFU/g lettuce
same,Aerobic plate count (APC) bacterial populations,"[1]; Day 6, 200 ppm av. Cl2",8.1 Log10 CFU/g lettuce
same,Aerobic plate count (APC) bacterial populations,"[1]; Day 7, 50 ppm av. Cl2",7.2 Log10 CFU/g lettuce
same,Aerobic plate count (APC) bacterial populations,"[1]; Day 7, 100 ppm av. Cl2",7.2 Log10 CFU/g lettuce
same,Aerobic plate count (APC) bacterial populations,"[1]; Day 7, 200 ppm av. Cl2",7.7 Log10 CFU/g lettuce
same,Aerobic plate count (APC) bacterial populations,"[1]; Day 8, 50 ppm av. Cl2",7.7 Log10 CFU/g lettuce
same,Aerobic plate count (APC) bacterial populations,"[1]; Day 8, 100 ppm av. Cl2",8.1 Log10 CFU/g lettuce
same,Aerobic plate count (APC) bacterial populations,"[1]; Day 8, 200 ppm av. Cl2",7.6 Log10 CFU/g lettuce
same,Aerobic plate count (APC) bacterial populations,"[1]; Day 9, 50 ppm av. Cl2",7.6 Log10 CFU/g lettuce
same,Aerobic plate count (APC) bacterial populations,"[1]; Day 9, 100 ppm av. Cl2",7.4 Log10 CFU/g lettuce
same,Aerobic plate count (APC) bacterial populations,"[1]; Day 9, 200 ppm av. Cl2",7.5 Log10 CFU/g lettuce
same,Aerobic plate count (APC) bacterial populations,"[1]; Day 10, 50 ppm av. Cl2",7.6 Log10 CFU/g lettuce
same,Aerobic plate count (APC) bacterial populations,"[1]; Day 10, 100 ppm av. Cl2",7.0 Log10 CFU/g lettuce
same,Aerobic plate count (APC) bacterial populations,"[1]; Day 10, 200 ppm av. Cl2",8.6 Log10 CFU/g lettuce
same,Aerobic plate count (APC) bacterial populations,"[1]; Day 11, 50 ppm av. Cl2",8.0 Log10 CFU/g lettuce
same,Aerobic plate count (APC) bacterial populations,"[1]; Day 11, 100 ppm av. Cl2",7.9 Log10 CFU/g lettuce
same,Aerobic plate count (APC) bacterial populations,"[1]; Day 11, 200 ppm av. Cl2",8.5 Log10 CFU/g lettuce
same,Aerobic plate count (APC) bacterial populations,"[1]; Day 12, 50 ppm av. Cl2",8.3 Log10 CFU/g lettuce
same,Aerobic plate count (APC) bacterial populations,"[1]; Day 12, 100 ppm av. Cl2",8.0 Log10 CFU/g lettuce
same,Aerobic plate count (APC) bacterial populations,"[1]; Day 12, 200 ppm av. Cl2",8.4 Log10 CFU/g lettuce
same,Yeast and mold (YM) count populations,"yeast and mold; Day 0, 50 ppm av. Cl2",2.8 Log10 CFU/g lettuce
same,Yeast and mold (YM) count populations,"yeast and mold; Day 0, 100 ppm av. Cl2",2.9 Log10 CFU/g lettuce
same,Yeast and mold (YM) count populations,"yeast and mold; Day 0, 200 ppm av. Cl2",2.7 Log10 CFU/g lettuce
same,Yeast and mold (YM) count populations,"yeast and mold; Day 1, 50 ppm av. Cl2",2.7 Log10 CFU/g lettuce
same,Yeast and mold (YM) count populations,"yeast and mold; Day 1, 100 ppm av. Cl2",2.9 Log10 CFU/g lettuce
same,Yeast and mold (YM) count populations,"yeast and mold; Day 1, 200 ppm av. Cl2",2.7 Log10 CFU/g lettuce
same,Yeast and mold (YM) count populations,"yeast and mold; Day 2, 50 ppm av. Cl2",2.7 Log10 CFU/g lettuce
same,Yeast and mold (YM) count populations,"yeast and mold; Day 2, 100 ppm av. Cl2",2.8 Log10 CFU/g lettuce
same,Yeast and mold (YM) count populations,"yeast and mold; Day 2, 200 ppm av. Cl2",2.8 Log10 CFU/g lettuce
same,Yeast and mold (YM) count populations,"yeast and mold; Day 4, 50 ppm av. Cl2",4.5 Log10 CFU/g lettuce
same,Yeast and mold (YM) count populations,"yeast and mold; Day 4, 100 ppm av. Cl2",4.1 Log10 CFU/g lettuce
same,Yeast and mold (YM) count populations,"yeast and mold; Day 4, 200 ppm av. Cl2",4.4 Log10 CFU/g lettuce
same,Yeast and mold (YM) count populations,"yeast and mold; Day 5, 50 ppm av. Cl2",3.3 Log10 CFU/g lettuce
same,Yeast and mold (YM) count populations,"yeast and mold; Day 5, 100 ppm av. Cl2",3.5 Log10 CFU/g lettuce
same,Yeast and mold (YM) count populations,"yeast and mold; Day 5, 200 ppm av. Cl2",3.0 Log10 CFU/g lettuce
same,Yeast and mold (YM) count populations,"yeast and mold; Day 6, 50 ppm av. Cl2",3.8 Log10 CFU/g lettuce
same,Yeast and mold (YM) count populations,"yeast and mold; Day 6, 100 ppm av. Cl2",3.9 Log10 CFU/g lettuce
same,Yeast and mold (YM) count populations,"yeast and mold; Day 6, 200 ppm av. Cl2",4.5 Log10 CFU/g lettuce
same,Yeast and mold (YM) count populations,"yeast and mold; Day 7, 50 ppm av. Cl2",3.7 Log10 CFU/g lettuce
same,Yeast and mold (YM) count populations,"yeast and mold; Day 7, 100 ppm av. Cl2",4.5 Log10 CFU/g lettuce
same,Yeast and mold (YM) count populations,"yeast and mold; Day 7, 200 ppm av. Cl2",4.0 Log10 CFU/g lettuce
same,Yeast and mold (YM) count populations,"yeast and mold; Day 8, 50 ppm av. Cl2",4.4 Log10 CFU/g lettuce
same,Yeast and mold (YM) count populations,"yeast and mold; Day 8, 100 ppm av. Cl2",4.9 Log10 CFU/g lettuce
same,Yeast and mold (YM) count populations,"yeast and mold; Day 8, 200 ppm av. Cl2",4.4 Log10 CFU/g lettuce
same,Yeast and mold (YM) count populations,"yeast and mold; Day 9, 50 ppm av. Cl2",4.0 Log10 CFU/g lettuce
same,Yeast and mold (YM) count populations,"yeast and mold; Day 9, 100 ppm av. Cl2",4.6 Log10 CFU/g lettuce
same,Yeast and mold (YM) count populations,"yeast and mold; Day 9, 200 ppm av. Cl2",4.2 Log10 CFU/g lettuce
same,Yeast and mold (YM) count populations,"yeast and mold; Day 10, 50 ppm av. Cl2",4.1 Log10 CFU/g lettuce
same,Yeast and mold (YM) count populations,"yeast and mold; Day 10, 100 ppm av. Cl2",3.8 Log10 CFU/g lettuce
same,Yeast and mold (YM) count populations,"yeast and mold; Day 10, 200 ppm av. Cl2",4.5 Log10 CFU/g lettuce
same,Yeast and mold (YM) count populations,"yeast and mold; Day 11, 50 ppm av. Cl2",4.9 Log10 CFU/g lettuce
same,Yeast and mold (YM) count populations,"yeast and mold; Day 11, 100 ppm av. Cl2",4.5 Log10 CFU/g lettuce
same,Yeast and mold (YM) count populations,"yeast and mold; Day 11, 200 ppm av. Cl2",4.6 Log10 CFU/g lettuce
same,Yeast and mold (YM) count populations,"yeast and mold; Day 12, 50 ppm av. Cl2",5.5 Log10 CFU/g lettuce
same,Yeast and mold (YM) count populations,"yeast and mold; Day 12, 100 ppm av. Cl2",4.8 Log10 CFU/g lettuce
same,Yeast and mold (YM) count populations,"yeast and mold; Day 12, 200 ppm av. Cl2",4.8 Log10 CFU/g lettuce
same,Log reduction of microbial populations from leaf lettuce surface,yeast and mold; 50 ppm av. Cl2,2.4 Log
same,Percent reduction of microbial populations from leaf lettuce surface,yeast and mold; 50 ppm av. Cl2,99.647%
same,Log reduction of microbial populations from leaf lettuce surface,yeast and mold; 100 ppm av. Cl2,2.3 Log
same,Percent reduction of microbial populations from leaf lettuce surface,yeast and mold; 100 ppm av. Cl2,99.494%
same,Log reduction of microbial populations from leaf lettuce surface,yeast and mold; 200 ppm av. Cl2,2.5 Log
same,Percent reduction of microbial populations from leaf lettuce surface,yeast and mold; 200 ppm av. Cl2,97.729%
same,Yeasts and molds reduced,yeast and mold; lettuce washed with the halogen solution,about 2 log
